Laboratory results taken from US10251931B2, “Cyclic peptides and methods using same” (priority 2014, dated 2019).
“Also recorded” adds a separate entry of the source. Positions of bridges follow the written chain, without caps; N, C: chain ends. Non-standard residues stand in square brackets, D forms with d. Residues, ends and D or L forms follow the SMILES beside them. Pro(cis-4-Trz(4-CH2CH2Ph)) = O=C(O)[C@@H]1C[C@H](n2cc(CCc3ccccc3)nn2)CN1

Experiments:
S375W mutant of gp120 = S375W mutant of gp120 (Human immunodeficiency virus type 1 group M subtype B, UniProt P35961, S370W); assay: SPR competition with gp120 mutant S375W; format: binding, HIV-1
S375H mutant of gp120 = S375H mutant of gp120 (Human immunodeficiency virus type 1 group M subtype B, UniProt P35961, S370H); assay: SPR competition with gp120 mutant S375H; format: binding, HIV-1
HIV-1 gp120 = target: T1, HIV-1 gp120 (Human immunodeficiency virus type 1 group M subtype B, UniProt P35961); format: binding; conditions: for Dual receptor site (CD4 and 17b) inhibition of gp120, in words: SPR competition
T1 construct: Expression and Purification of Wild-Type gp120YU-2; made in house; host or cells: HEK 293F
Description: SPR competition binding assays were used to assess the structural elements required for cyclic hexapeptide binding to gp120. […] In an attempt to restore the lost contact, the length of the two linkers was changed (Linker 1 and Linker 2 in FIG. 12).
SPR experiments were performed on a Biacore 3000 optical biosensor (GE Healthcare). All experiments were carried out at 25° C. using standard PBS buffer pH=7.4 with 0.005% surfactant Tween. A CM5 sensor chip was derivatized by standard 1-ethyl-3-(3-dimethylaminopropyl) carbodiimide (EDC)/N-hydroxysuccinimide (NHS) chemistry, and coupling was done through ligand amine groups. Antibody 2B6R (α-human IL5R) was immobilized for negative control surfaces. For competition experiments, soluble four domain CD4 and 17b antibody were immobilized on the surface through standard EDC/NHS chemistry. For kinetic analyses, typically 2000-3000 RUs of protein reagents were immobilized on SPR chips, and analytes were passed over the surface at 50-100 μL/min. Surface regeneration was achieved by a 5 μL injection of 10 mM HCl solution at 100 μL/min. […] Regeneration of the surface was achieved by a single 10 second pulse of 1.3 M NaCl/35 mM NaOH and single 5-second pulse of 10 mM glycine, pH 1.5, for sCD4 and mAb 17b, respectively. All analyses were performed in triplicate.
The inhibition curve was converted into a calibration curve by the use of a fitting function. The fitting was done using the 4-parameter Equation (1) from BIAevaluation software,
The cyclic peptides of the invention were tested against HIV-1 gp120 by SPR competition assays as described elsewhere herein. A mixture of the cyclic peptide/gp120 solutions was passed over SPR chip immobilized with CD4 and 17b separately. The competition assay evaluated the ability of each peptide to inhibit the binding between gp120 and both soluble CD4 and 17b antibody, a surrogate for co-receptor.

HIV-1 Bal.01 pseudovirus = assay: Inhibition of HIV-1 infection against Bal.01 (HOS.T4.R5 cells, luciferase); format: cell-based
HIV-1 JR-FL pseudovirus = assay: Inhibition of HIV-1 infection against JR-FL (HOS.T4.R5 cells, luciferase); format: cell-based
[1] = target: T2, Trypsin (from bovine pancreas) (Bos taurus, UniProt P00760); assay: In vitro proteolytic stability, trypsin; conditions: 5 h incubation, 37° C.
T2 sequence (P00760 24-246): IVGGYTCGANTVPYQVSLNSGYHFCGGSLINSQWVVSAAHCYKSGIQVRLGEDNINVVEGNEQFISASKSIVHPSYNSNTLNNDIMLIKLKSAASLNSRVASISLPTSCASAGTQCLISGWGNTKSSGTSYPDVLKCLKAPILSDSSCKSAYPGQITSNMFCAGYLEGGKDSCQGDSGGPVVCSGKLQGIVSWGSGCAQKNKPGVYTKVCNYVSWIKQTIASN

[2] = target: Chymotrypsin (bovine pancreas) (Bos taurus, UniProt P00766); assay: In vitro proteolytic stability, chymotrypsin
[3] = system: HIV-1 subtype A, B and C isolates; conditions: read-out: IC50 range, neutralization of viral infection; cited from earlier work
monomeric gp120 = monomeric gp120 (Human immunodeficiency virus type 1 group M subtype B, UniProt P35961); conditions: read-out: KD, binding to monomeric gp120; cited from earlier work
[4] = system: viruses pseudotyped with VSV-G; conditions: cited from earlier work
tissue explants model = conditions: concentrations up to 100 μM; cited from earlier work

Molecule	Activity against S375W mutant of gp120 (S375W mutant of gp120)	Activity against S375H mutant of gp120 (S375H mutant of gp120)	fold more active than the linear analogue (HIV-1 gp120)	Dual receptor site (CD4 and 17b) inhibition of gp120, in words (HIV-1 gp120)	Infection inhibition against Bal.01, in words (HIV-1 Bal.01 pseudovirus)	Infection inhibition against JR-FL, in words (HIV-1 JR-FL pseudovirus)	Resistance to trypsin, in words [1]	State after chymotrypsin treatment, in words ([2]; 30 min incubation, 37° C.)	Resistance to chymotrypsin, in words ([2]; 5 h incubation, 37° C.)	Intactness after chymotrypsin digestion, in words ([2]; 40 h incubation, HPLC and ESI-MS)	Time the peptide remained stable ([2]; in the presence of trypsin and chymotrypsin, 37° C., pH 8.2)	fold enhanced activity vs AAR029b (HIV-1 gp120)	IC50 [3]	Kd (monomeric gp120)	Neutralization of VSV-G pseudotyped viruses, in words [4]	Toxicity in tissue explants model (tissue explants model)
CC[C@H](C)[C@H](N)C(=O)N[C@H]1CCC(=O)NCCCC[C@@H](C(N)=O)NC(=O)[C@H](Cc2c[nH]c3ccccc23)NC(=O)[C@@H]2C[C@H](n3cc(CCc4ccccc4)nn3)CN2C(=O)[C@H]([C@@H](C)CC)NC(=O)[C@H](CC(N)=O)NC1=O [AAR024, (3S,6S,15S,18S,21S,25S,26aS)-3-((1H-indol-3-yl)methyl)-18-(2-amino-2-oxoethyl)-15-((2S,3S)-2-amino-3-methylpentanamido)-21-((S)-sec-butyl)-1,4,12,16,19,22-hexaoxo-25-(4-phenethyl-1H-1,2,3-triazol-1-yl)hexacosahydropyrrolo[2,1-f][1,4,7,10,13,19]hexaazacyclotetracosine-6-carboxamide] (H-IENI[Pro(cis-4-Trz(4-CH2CH2Ph))]WK-NH2; lactam 2-7)	inactive	inactive	> 40 fold	retained the dual receptor site inhibitory signature of linear PTs; also recorded: dual inhibitors	–	–	–	–	–	–	–	–	–	–	–	–
CC[C@H](C)[C@@H]1NC(=O)[C@H](CC(N)=O)NC(=O)[C@@H](N)CC(=O)NCCCC[C@@H](C(N)=O)NC(=O)[C@H](Cc2c[nH]c3ccccc23)NC(=O)[C@@H]2C[C@H](n3cc(CCc4ccccc4)nn3)CN2C1=O [AAR029, (3S,6S,14S,17S,20S,24S,25aS)-3-((1H-indol-3-yl)methyl)-14-amino-17-(2-amino-2-oxoethyl)-20-((S)-sec-butyl)-1,4,12,15,18,21-hexaoxo-24-(4-phenethyl-1H-1,2,3-triazol-1-yl)tetracosahydro-1H-pyrrolo[2,1-f][1,4,7,10,13,18]hexaazacyclotricosine-6-carboxamide] (H-DNI[Pro(cis-4-Trz(4-CH2CH2Ph))]WK-NH2; lactam 1-6)	–	–	> 200 fold	dual inhibitors	inhibiting activity	inhibiting activity	completely resistant	almost unchanged	completely resistant	remained intact	> 40 h	~2 fold	–	–	–	–
(S)-4-((S)-2-((S)-2-((2S,4S)-1-(L-arginyl-L-isoleucyl-L-asparaginyl-L-asparaginyl-L-alloisoleucyl)-4-(4-ferrocenyl-1H-1,2,3-triazol-1-yl)pyrrolidine-2-carboxamido)-3-(1H-indol-3-yl)propanamido)-3-hydroxypropanamido)-5-(((S)-1-(((S)-1-(((S)-1-amino-4-(methylthio)-1-oxobutan-2-yl)amino)-4-(methylthio)-1-oxobutan-2-yl)amino)-1-oxopropan-2-yl)amino)-5-oxopentanoic acid [HNG156]	–	–	–	–	–	–	–	–	–	–	–	–	80 to 62500 nM	7 nM	not	no detectable toxicity
